Laboratory results published in patent publication US20230365592A1 (Agios Pharmaceuticals, Inc., priority 2022, published 2023).

target: T1, human PAH with the R408W mutation (Homo sapiens, UniProt P00439, R408W); assay: Cell Based Phenylalanine Flux Assay; settings: A375 cells expressing R408W PAH; 24 hrs with compound, then 20 µM sepiapterin and 800 µM 13C9,15N-Phenylalanine for 4 hours; 13C-Tyrosine by LC-MS; average where tested multiple times; read-out: AC50;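 also: after compound treatment, cells received sepiapterin plus isotope-labelled Phenylalanine for 4 hours, then labelled Tyrosine in the medium was quantified, 10-point 2-fold dilution series run in duplicate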
T1 construct: expressed in transfected cells
T1 sequence (P00439 1-452 R408W): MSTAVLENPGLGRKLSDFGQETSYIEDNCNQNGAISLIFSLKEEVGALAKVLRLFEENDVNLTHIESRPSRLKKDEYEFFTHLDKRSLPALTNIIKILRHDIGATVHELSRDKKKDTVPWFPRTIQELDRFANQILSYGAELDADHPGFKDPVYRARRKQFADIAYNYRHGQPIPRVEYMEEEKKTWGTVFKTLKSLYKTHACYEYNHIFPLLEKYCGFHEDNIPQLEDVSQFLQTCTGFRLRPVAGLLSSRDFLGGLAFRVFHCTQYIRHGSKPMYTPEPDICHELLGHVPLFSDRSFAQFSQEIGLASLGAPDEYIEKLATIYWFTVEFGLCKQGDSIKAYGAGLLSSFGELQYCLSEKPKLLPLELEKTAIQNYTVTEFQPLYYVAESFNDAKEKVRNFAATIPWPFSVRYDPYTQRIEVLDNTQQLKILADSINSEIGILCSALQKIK

`Cn1cncc1-c1nnc(C(=O)N2CCc3[nH]cnc3C2c2cc3cccc(Cl)n3n2)o1` (centres unmarked) and `O=C(c1nnc(C2CC(F)(F)C2)o1)N1CCc2[nH]cnc2[C@H]1c1cc2cccc(F)n2n1` (single isomer, unassigned) fall in the same range of AC50: 1000 to 5000 nM for the first, 1000 to 5000 nM for the second.

`O=C(C1CC1)N1CCc2[nH]cnc2C1c1cc2ccccn2n1` (centres unmarked) and `CC(C)(F)c1nnc(C(=O)N2CCc3[nH]cnc3C2c2cc3ccccn3n2)o1` (centres unmarked) fall in the same range of AC50: 1000 to 5000 nM for the first, 1000 to 5000 nM for the second.

`O=C(c1nnc(C2CC(F)(F)C2)o1)N1CCc2[nH]cnc2C1c1cc2cccc(C(F)(F)F)n2n1` (centres unmarked) showed an AC50 of 1000 to 5000 nM.

same assay, conditions: A375 cells expressing human PAH R408W; 24 hrs compound incubation; 13C-Tyrosine by LC-MS; average where tested multiple times; read-out: AC50

Compared with `Nc1cnc(N2CCc3[nH]cnc3[C@@H]2c2cc3c(C(F)F)cccn3n2)nc1` [Example 1853, (R)-2-(4-(4-(difluoromethyl)pyrazolo[1,5-a]pyridin-2-yl)-1,4,6,7-tetrahydro-5H-imidazo[4,5-c]pyridin-5-yl)pyrimidin-5-amine], `FC(F)Oc1cccn2nc([C@@H]3c4nc[nH]c4CCN3c3ncc(C(F)(F)F)cn3)cc12` [Example 2256, (S)-4-(4-(difluoromethoxy)pyrazolo[1,5-a]pyridin-2-yl)-5-(5-(trifluoromethyl)pyrimidin-2-yl)-4,5,6,7-tetrahydro-1H-imidazo[4,5-c]pyridine] is lower in AC50: 1000 to 5000 nM for the first, less than 500 nM for the second.

First: CC(C)c1cccn2nc([C@@H]3c4nc[nH]c4CCN3C(=O)c3nnc(-c4ccn(C)n4)o3)cc12 [Example 1951, (S)-(4-(4-isopropylpyrazolo[1,5-a]pyridin-2-yl)-1,4,6,7-tetrahydro-5H-imidazo[4,5-c]pyridin-5-yl)(5-(1-methyl-1H-pyrazol-3-yl)-1,3,4-oxadiazol-2-yl)methanone]
Second: Cn1ccc(-c2ncc(C(=O)N3CCc4[nH]cnc4[C@@H]3c3cc4c(F)cccn4n3)o2)n1 [Example 2504, (R)-(4-(4-fluoropyrazolo[1,5-a]pyridin-2-yl)-1,4,6,7-tetrahydro-5H-imidazo[4,5-c]pyridin-5-yl)(2-(1-methyl-1H-pyrazol-3-yl)oxazol-5-yl)methanone]
The AC50 of the first is lower: less than 500 nM for the first, greater than 5000 nM for the second.

`O=C(c1nnc(-c2cnccn2)o1)N1CCc2[nH]cnc2[C@H]1c1cc2c(OC(F)F)cccn2n1` [Example 2448, (S)-(4-(4-(difluoromethoxy)pyrazolo[1,5-a]pyridin-2-yl)-6,7-dihydro-1H-imidazo[4,5-c]pyridin-5(4H)-yl)(5-(pyrazin-2-yl)-1,3,4-oxadiazol-2-yl)methanone] and `Cn1nc(C(F)F)nc1C(=O)N1CCc2[nH]cnc2[C@H]1c1cc2cccc(Cl)n2n1` [Example 2396, (S)-(4-(7-chloropyrazolo[1,5-a]pyridin-2-yl)-6,7-dihydro-1H-imidazo[4,5-c]pyridin-5(4H)-yl)(3-(difluoromethyl)-1-methyl-1H-1,2,4-triazol-5-yl)methanone] fall in the same range of AC50: 1000 to 5000 nM for the first, 1000 to 5000 nM for the second.

same assay, conditions: A375 cells expressing human R408W PAH; 24 hrs compound incubation; 13C-Tyrosine by LC-MS; average where tested multiple times; read-out: AC50

Compared with `CC(C)(O)c1nc(C(F)F)c(C(=O)N2CCc3[nH]cnc3[C@H]2c2cc3cc(F)ccn3n2)o1` [Example 1084, (S)-(4-(difluoromethyl)-2-(2-hydroxypropan-2-yl)oxazol-5-yl)(4-(5-fluoropyrazolo[1,5-a]pyridin-2-yl)-6,7-dihydro-1H-imidazo[4,5-c]pyridin-5(4H)-yl)methanone], `CC(C)(O)c1nc(C(F)F)c(C(=O)N2CCc3[nH]cnc3[C@@H]2c2cc3c(C(F)(F)F)cccn3n2)o1` [Example 811, (R)-(4-(difluoromethyl)-2-(2-hydroxypropan-2-yl)oxazol-5-yl)(4-(4-(trifluoromethyl)pyrazolo[1,5-a]pyridin-2-yl)-6,7-dihydro-1H-imidazo[4,5-c]pyridin-5(4H)-yl)methanone] is higher in AC50: less than 500 nM for the first, 1000 to 5000 nM for the second.

`Cc1cccn2nc([C@H]3c4nc[nH]c4CCN3C(=O)c3cnn4cc(-c5ccccn5)ccc34)cc12` [Example 1649, (R)-(4-(4-methylpyrazolo[1,5-a]pyridin-2-yl)-6,7-dihydro-1H-imidazo[4,5-c]pyridin-5(4H)-yl)(6-(pyridin-2-yl)pyrazolo[1,5-a]pyridin-3-yl)methanone] and `Cc1cccc(-c2nnc(C(=O)N3CCc4[nH]cnc4[C@@H]3c3cc4c(Cl)cccn4n3)o2)n1` [Example 1430, (R)-(4-(4-chloropyrazolo[1,5-a]pyridin-2-yl)-6,7-dihydro-1H-imidazo[4,5-c]pyridin-5(4H)-yl)(5-(6-methylpyridin-2-yl)-1,3,4-oxadiazol-2-yl)methanone] cannot be ordered by AC50: greater than 5000 nM for the first, greater than 5000 nM for the second.

First: O=C(c1ccnn1C(F)(F)F)N1CCc2[nH]cnc2[C@@H]1c1cc2ccccn2n1 [Example 717, (R)-(4-(pyrazolo[1,5-a]pyridin-2-yl)-6,7-dihydro-1H-imidazo[4,5-c]pyridin-5(4H)-yl)(1-(trifluoromethyl)-1H-pyrazol-5-yl)methanone]
Second: O=C(c1ccnn1C(F)(F)F)N1CCc2[nH]cnc2[C@H]1c1cc2ccccn2n1 [Example 716, (S)-(4-(pyrazolo[1,5-a]pyridin-2-yl)-6,7-dihydro-1H-imidazo[4,5-c]pyridin-5(4H)-yl)(1-(trifluoromethyl)-1H-pyrazol-5-yl)methanone]
The AC50 of the first is higher: 500 to 1000 nM for the first, less than 500 nM for the second.

Compared with `Cn1nccc1-c1nnc(C(=O)N2CCc3[nH]cnc3[C@H]2c2cc3c(C(F)F)cccn3n2)o1` [Example 1532, (S)-(4-(4-(difluoromethyl)pyrazolo[1,5-a]pyridin-2-yl)-6,7-dihydro-1H-imidazo[4,5-c]pyridin-5(4H)-yl)(5-(1-methyl-1H-pyrazol-5-yl)-1,3,4-oxadiazol-2-yl)methanone], `O=C(c1nnc(-c2ccccn2)o1)N1CCc2[nH]cnc2[C@H]1c1cc2ccc(F)cn2n1` [Example 1090, (S)-(4-(6-fluoropyrazolo[1,5-a]pyridin-2-yl)-6,7-dihydro-1H-imidazo[4,5-c]pyridin-5(4H)-yl)(5-(pyridin-2-yl)-1,3,4-oxadiazol-2-yl)methanone] is higher in AC50: less than 500 nM for the first, 500 to 1000 nM for the second.

First: O=C(c1nnc(C2CCC2)o1)N1CCc2[nH]cnc2[C@@H]1c1cc2cccc(C(F)F)n2n1 [Example 1572, (R)-(5-cyclobutyl-1,3,4-oxadiazol-2-yl)(4-(7-(difluoromethyl)pyrazolo[1,5-a]pyridin-2-yl)-6,7-dihydro-1H-imidazo[4,5-c]pyridin-5(4H)-yl)methanone]
Second: Cc1cccc2cc([C@@H]3c4nc[nH]c4CCN3C(=O)c3nnc(C(C)(C)C)o3)nn12 [Example 1020, (S)-(5-(tert-butyl)-1,3,4-oxadiazol-2-yl)(4-(7-methylpyrazolo[1,5-a]pyridin-2-yl)-6,7-dihydro-1H-imidazo[4,5-c]pyridin-5(4H)-yl)methanone]
The AC50 of the first is higher: 1000 to 5000 nM for the first, less than 500 nM for the second.

`Cn1ccc(-c2nnc(C(=O)N3CCc4[nH]cnc4[C@H]3c3cc4ccc(C(F)(F)F)cn4n3)o2)n1` [Example 1128, (S)-(5-(1-methyl-1H-pyrazol-3-yl)-1,3,4-oxadiazol-2-yl)(4-(6-(trifluoromethyl)pyrazolo[1,5-a]pyridin-2-yl)-6,7-dihydro-1H-imidazo[4,5-c]pyridin-5(4H)-yl)methanone] and `COc1ccc(-c2nnc(C(=O)N3CCc4[nH]cnc4[C@H]3c3cc4cccc(F)n4n3)o2)nc1` [Example 1525, (S)-(4-(7-fluoropyrazolo[1,5-a]pyridin-2-yl)-6,7-dihydro-1H-imidazo[4,5-c]pyridin-5(4H)-yl)(5-(5-methoxypyridin-2-yl)-1,3,4-oxadiazol-2-yl)methanone] fall in the same range of AC50: 500 to 1000 nM for the first, 500 to 1000 nM for the second.

`FC(F)c1cccn2nc([C@H]3c4nc[nH]c4CCN3c3ncc(C(F)(F)F)cn3)cc12` [Example 1777, (R)-4-(4-(difluoromethyl)pyrazolo[1,5-a]pyridin-2-yl)-5-(5-(trifluoromethyl)pyrimidin-2-yl)-4,5,6,7-tetrahydro-1H-imidazo[4,5-c]pyridine] and `Cc1cccn2nc([C@H]3c4nc[nH]c4CCN3c3nnc(C(C)(C)C)o3)cc12` [Example 1798, (R)-2-(tert-butyl)-5-(4-(4-methylpyrazolo[1,5-a]pyridin-2-yl)-6,7-dihydro-1H-imidazo[4,5-c]pyridin-5(4H)-yl)-1,3,4-oxadiazole] cannot be ordered by AC50: greater than 5000 nM for the first, greater than 5000 nM for the second.

Compared with `O=C(c1cnco1)N1CCc2[nH]cnc2[C@@H]1c1cc2c(F)cccn2n1` [Example 761, (R)-(4-(4-fluoropyrazolo[1,5-a]pyridin-2-yl)-6,7-dihydro-1H-imidazo[4,5-c]pyridin-5(4H)-yl)(oxazol-5-yl)methanone], `N#Cc1ncoc1C(=O)N1CCc2[nH]cnc2[C@H]1c1cc2ccc(Br)cn2n1` [Example 682, (S)-5-(4-(6-bromopyrazolo[1,5-a]pyridin-2-yl)-4,5,6,7-tetrahydro-1H-imidazo[4,5-c]pyridine-5-carbonyl)oxazole-4-carbonitrile] is lower in AC50: 1000 to 5000 nM for the first, 500 to 1000 nM for the second.

Compared with `Cc1cccc2cc([C@@H]3c4nc[nH]c4CCN3c3nnc(C(F)F)o3)nn12` [Example 1741, (S)-2-(difluoromethyl)-5-(4-(7-methylpyrazolo[1,5-a]pyridin-2-yl)-6,7-dihydro-1H-imidazo[4,5-c]pyridin-5(4H)-yl)-1,3,4-oxadiazole], `O=C(c1oc(C2(O)CC2)nc1C(F)F)N1CCc2[nH]cnc2[C@H]1c1cc2cccc(Cl)n2n1` [Example 1236, (S)-(4-(7-chloropyrazolo[1,5-a]pyridin-2-yl)-6,7-dihydro-1H-imidazo[4,5-c]pyridin-5(4H)-yl)(4-(difluoromethyl)-2-(1-hydroxycyclopropyl)oxazol-5-yl)methanone] is lower in AC50: 500 to 1000 nM for the first, less than 500 nM for the second.
